Reference: patent US9951055B2, “Thiazole-based inhibitors of scavenger receptor BI” (THE BROAD INSTITUTE, INC., priority 2012, dated 2018)
“Also recorded” adds a separate entry of the source.

Columns and labels:
C384S SR-BI = molecular target: T1, C384S SR-BI (Mus musculus, UniProt Q61009, C384S); assay: Radioactive HDL uptake assay (mutant SR-BI); format: cell-based, murine
T1 construct: expressed in transfected cells; host or cells: CHO cell line lacking LDL receptors (variant of ldlA[mSR-BI])
T1 sequence (Q61009 1-509 C384S): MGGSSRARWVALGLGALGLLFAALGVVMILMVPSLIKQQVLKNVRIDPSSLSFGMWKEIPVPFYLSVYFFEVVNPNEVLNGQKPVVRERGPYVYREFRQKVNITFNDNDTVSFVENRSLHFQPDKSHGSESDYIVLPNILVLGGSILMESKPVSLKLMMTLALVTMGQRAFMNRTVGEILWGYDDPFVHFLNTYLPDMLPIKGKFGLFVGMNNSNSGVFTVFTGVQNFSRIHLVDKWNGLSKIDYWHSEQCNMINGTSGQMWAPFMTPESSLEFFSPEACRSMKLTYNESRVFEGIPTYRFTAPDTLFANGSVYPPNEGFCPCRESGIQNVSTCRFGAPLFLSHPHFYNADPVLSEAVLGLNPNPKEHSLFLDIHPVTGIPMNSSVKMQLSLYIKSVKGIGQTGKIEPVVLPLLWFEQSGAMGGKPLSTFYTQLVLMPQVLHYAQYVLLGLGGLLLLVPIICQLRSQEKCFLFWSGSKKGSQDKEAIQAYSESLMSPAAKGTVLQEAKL
Excerpt: Radioactive HDL Uptake Assay (mutant SR-BI) (SA 9: AID No. 588837)
BLT-1 is known to interact at cysteine 384 of SR-BI (16). […] This assay is used to determine if the compounds work in a similar fashion to BLT-1 and require Cys384 to alter the binding of HDL particles and uptake of the lipid to the mutant SR-BI scavenger receptor, using an alternative means of labeling HDL-cholesterol particles and avoiding any type of fluorescence measurement. To measure this lipid uptake event, HDL particles are labeled with [^3H]cholesteryl ester and added to C384S SR-BI cells. Cells take up HDL lipids via the mutant SR-BI in 2 to 3 hours. After significant uptake of the HDL lipid, the radiolabel can be detected by liquid scintillation counting. The level of radioactivity correlates with the amount of HDL lipid uptake. The uptake of lipid from the HDL particles can be inhibited by the compound BLT-1 or when co-treated with an excess of unlabeled HDL. The mSR-BI cells utilized in the assay are a CHO cell line lacking expression of the LDL receptors and overexpressing the mutant scavenger receptor, C384S SR-BI.

[1] = system: Jc1 378-1 TagRFP reporter HCV virus; assay: In vitro inhibition of HCV in Huh-7.5 cells; format: cell-based, hepatitis C virus; settings: for inhibition of HCV replication: Huh-7.5 cells, MOI=0.1, 3 dpi; for mean fluorescence intensity (MFI) of HCV positive cells: normalized to DMSO control
Protocol: The compound of formula (II) was also tested for the in vitro inhibition of HCV. Huh-7.5 cells were seeded in a 24-well plates (50,000 cells/well) and incubate over night. The medium was changed to compound/solvent containing medium 2 hours prior to infection (200 μL/well) with a reporter HCV virus called Jc1 378-1 TagRFP. A dilute virus stock was used to infect at a MOI of 0.1 (7,500 IU/well) in 10 μL medium. 10 μL of virus dilution was added to the wells containing compound/solvent (thereby dilution the compounds by only ˜5%). Infections were incubated for 4 hours before washing off the inoculum 1× with 500 μL medium. Fresh compound/solvent containing medium was added to the cells (500 μL/well), and further incubated for 48-72 hours. Cells were harvested at 48-72 hpi and viral replication was determined by fixing the cells and measuring replication by FACS (fluorescence activated cell sorting). Controls having antibodies that neutralize HCV by blocking E2 (2 μg/mL) and controls having antibodies that block a HCV receptor CD81 (2 μg/mL) were used.
A series of tests were conducted using the compound of Formula II ML278), other known inhibitors of SRB1 and controls with cells infected with hepatitis C virus (HCV). The cells (Huh-7.5 cells infected with Jc1 378-1 TagRFP (MOI=0.1) 3 dpi) were treated with the following SR-BI compounds and controls:
Three different infection protocols were followed: (1) no wash—virus inoculum was removed 4 hpi and fresh medium containing compounds added without washing cells; (2) 5× wash—virus inoculum was removed 4 hpi, cells were washed 5× with PBS and fresh medium containing compounds added; and (3) no wash Opt—infection were performed in serum-free OptiMem; virus inoculum was removed 4 hpi and fresh medium containing compounds added without washing cells. FIG. 107 provides a comparison of the three different infection set-ups. FIG. 108 provides a comparison of two independent experiments.

[2] = molecular target: T2, murine SR-BI with the C384S mutation (Mus musculus, UniProt Q61009, C384S); assay: Mutant SR-BI cholesterol efflux assay; format: cell-based
T2 construct: expressed in transfected cells; host or cells: CHO cell line lacking LDL receptors (variant of ldlA[mSR-BI])
T2 sequence (Q61009 1-509 C384S): T1 sequence (Q61009 1-509 C384S)
Protocol: Mutant SR-BI Cholesterol Efflux Assay (SA 10: AID Nos. 588843, 602138)
BLT-1 is known to interact at cysteine 384 of SR-BI (16). […] This assay is used to determine if the compounds work in a similar fashion to BLT-1 and require Cys384 to alter the efflux of free cholesterol to HDL.
On Day 0, 50,000 cells expressing murine SR-BI with the C384S mutation per well were plated in 24-well plates. On the following day, […] On Day 1, the medium was replaced with Ham's F12 medium supplemented with 10% bovine lipoprotein deficient serum with 1 μCi/ml [1,2-^3H]cholesterol (40-60 Ci/mmol). On Day 3, the cells were washed to remove serum and incubated in Ham's F12 plus 1% fatty acid-free BSA. On Day 4, the cells were washed and pretreated with compounds for 1 hour. Subsequently, the cells were incubated for an additional 2 hours with the same concentrations of small molecules and with unlabeled HDL (final HDL concentration of 100 μg protein/ml). […] The amount of [^3H]cholesterol in the medium and within cells was calculated using liquid scintillation counting. Total cellular [^3H]cholesterol was determined as the sum of the radioactivity in the efflux medium plus the radioactivity in the cells and was used to calculate the [^3H]cholesterol efflux (percent of total [^3H]cholesterol released into the medium).

SMILES | uptake of HDL in Cys384Ser mutant background (C384S SR-BI) | EC50 ([1]; Hepatitis C virus, Huh7.5, read-out: EC50, HCV) [nM] | EC90 ([1]; Hepatitis C virus, Huh7.5, read-out: EC90, HCV) [nM] | inhibition of HCV replication ([1]; listed as SRB1-7) | mean fluorescence intensity (MFI) of HCV positive cells [1] | efflux of cholesterol in Cys384Ser mutant background [2] | inhibition of HCV replication ([1]; listed as SRB1-8)
COCC(=O)N1CCc2cc(-c3csc(NC(=O)c4cc(OC)cc(OC)c4)n3)ccc21 [Compound 137, 3,5-Dimethoxy-N-(4-(1-(2-methoxyacetyl)indolin-5-yl)thiazol-2-yl)benzamide] | can reduce uptake and efflux in the mutant background | 44 | ~500 | inhibited viral replication; also recorded: able to inhibit HCV replication | this increase was not seen | can reduce uptake and efflux in the mutant background | –
CCCCCCC1CCCC1=NNC(N)=S (stereo not shown) [BLT-1, reference compound] | does not significantly reduce uptake of HDL or efflux of cholesterol | – | – | – | increased mean fluorescence intensity (MFI) of HCV positive cells in a dose dependent manner | does not significantly reduce uptake of HDL or efflux of cholesterol | inhibited viral replication; also recorded: able to inhibit HCV replication
